Active and inactive are the calls of the source.
How the values were obtained:
[1] = HEK-293T viability loss after treatment – luminescence, T-cell screen hits, cytotoxicity control for TCR NF-kB inhibitor project, dose response (AID 489026); format: functional, cell-based;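 further: cells exposed to compound about 14 hours before the viability readout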
[2] = viability loss in HeLa cells – cytotoxicity control for MgcRacGAP inhibitor project, dose response (AID 624300); format: functional
[3] = molecular target: T1, Rac GTPase-activating protein 1 (Homo sapiens, UniProt Q9H0H5); experiment: blockers of MgcRacGAP-driven Rac1 GTP hydrolysis – biochemical, ADP Hunter fluorescence, primary and confirmatory, confirmation (AID 624330); format: functional
T1 sequence (Q9H0H5 whole entry): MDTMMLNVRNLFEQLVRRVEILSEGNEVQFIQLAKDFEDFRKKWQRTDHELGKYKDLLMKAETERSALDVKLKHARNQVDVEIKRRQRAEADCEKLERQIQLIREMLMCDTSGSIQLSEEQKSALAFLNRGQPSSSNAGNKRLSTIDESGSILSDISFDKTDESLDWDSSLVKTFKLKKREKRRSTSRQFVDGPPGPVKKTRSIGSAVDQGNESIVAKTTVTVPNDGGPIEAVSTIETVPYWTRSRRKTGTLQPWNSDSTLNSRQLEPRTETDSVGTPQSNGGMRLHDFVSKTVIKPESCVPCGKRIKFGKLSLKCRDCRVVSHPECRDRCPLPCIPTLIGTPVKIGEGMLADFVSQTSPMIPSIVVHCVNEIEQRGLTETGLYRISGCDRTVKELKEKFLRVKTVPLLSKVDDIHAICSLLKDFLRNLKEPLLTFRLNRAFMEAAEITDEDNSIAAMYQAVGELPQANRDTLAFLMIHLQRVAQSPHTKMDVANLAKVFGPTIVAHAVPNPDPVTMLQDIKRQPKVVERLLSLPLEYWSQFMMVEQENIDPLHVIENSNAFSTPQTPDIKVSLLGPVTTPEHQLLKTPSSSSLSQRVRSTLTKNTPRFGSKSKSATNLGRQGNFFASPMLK

[4] = NIH3T3 cell viability loss – ATP luminescence, mouse fibroblasts, counter-screen, dose response (AID 2010); format: functional, cell-based;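 further: cells exposed to compound for about 90 hours before reading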
[5] = Trypanosoma cruzi growth suppression in host cells – NIH3T3 host cells, beta-gal luminescence, confirmation (AID 2044); format: functional, cell-based;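 further: intracellular parasites grown in NIH/3T3 mouse fibroblasts as host cells; luminescent beta-galactosidase reporter signal from transgenic T. cruzi replicating inside host cells; inhibitors lower the luminescence signal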
[6] = molecular target: T2, Microphthalmia-associated transcription factor (Homo sapiens, UniProt O75030); experiment: reducers of TRPM1 reporter luminescence, concentration series – cell-based, SK-MEL-5, cherry-picked, set 3, MITF inhibitor project, dose response (AID 493073); format: functional;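 further: SK-MEL-5 melanoma cells with luciferase driven by the MITF target TRPM1 promoter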
T2 sequence (O75030 whole entry): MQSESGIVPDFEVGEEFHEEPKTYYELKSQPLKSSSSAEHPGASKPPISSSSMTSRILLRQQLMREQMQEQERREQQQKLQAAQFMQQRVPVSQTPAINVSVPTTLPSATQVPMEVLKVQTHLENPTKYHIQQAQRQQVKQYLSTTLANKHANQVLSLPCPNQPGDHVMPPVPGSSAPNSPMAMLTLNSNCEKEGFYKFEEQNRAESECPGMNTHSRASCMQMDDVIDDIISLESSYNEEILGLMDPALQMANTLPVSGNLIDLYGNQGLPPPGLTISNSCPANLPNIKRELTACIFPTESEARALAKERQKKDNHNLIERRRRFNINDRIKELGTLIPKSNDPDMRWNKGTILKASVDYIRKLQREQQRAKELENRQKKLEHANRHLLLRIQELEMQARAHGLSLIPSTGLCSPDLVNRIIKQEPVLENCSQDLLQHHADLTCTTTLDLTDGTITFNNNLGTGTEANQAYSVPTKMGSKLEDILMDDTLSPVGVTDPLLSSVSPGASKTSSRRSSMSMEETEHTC

A-375 = experiment: proliferation inhibition in MITF-low A375 cells – cell-based, cherry-pick samples, set 2, counter-screen for MITF modulator project, dose response (AID 540335); format: functional; conditions: Homo sapiens
[7] = blockers of CAL PDZ–TMR peptide complex – biochemical, fluorescence polarization, untagged CAL PDZ, cherry-pick, set 2, dose response (AID 602254); format: functional
[8] = Luminescence Cell-Based Dose Confirmation HTS to Identify Activators of 5'UTR Stem-Loop Driven Alpha-Synuclein mRNA Translation in H4 Neuroglioblastoma Cells. [Related pubchem assays: 1829 (Project Summary), 1814 (Primary HTS)]; format: functional
Vero = experiment: cells; format: functional; conditions: Chlorocebus sabaeus
HEK293 [9] = experiment: cells; conditions: Homo sapiens
H4 = experiment: Luminescence Cell-Based Dose Response HTS to Identify Activators of 5'UTR Stem-Loop Driven Prion Protein mRNA Translation in H4 Neuroglioblastoma Cells. [Related pubchem assays: 1829 (Project Summary), 1814 (Primary HTS)]; format: functional; conditions: Homo sapiens
X-box-binding protein 1 = X-box-binding protein 1 (Homo sapiens, UniProt P17861); format: functional, Cricetulus griseus;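 further: confirmatory dose-response counter-screen serving a CHOP assay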
Chain of X-box-binding protein 1 (P17861 whole entry): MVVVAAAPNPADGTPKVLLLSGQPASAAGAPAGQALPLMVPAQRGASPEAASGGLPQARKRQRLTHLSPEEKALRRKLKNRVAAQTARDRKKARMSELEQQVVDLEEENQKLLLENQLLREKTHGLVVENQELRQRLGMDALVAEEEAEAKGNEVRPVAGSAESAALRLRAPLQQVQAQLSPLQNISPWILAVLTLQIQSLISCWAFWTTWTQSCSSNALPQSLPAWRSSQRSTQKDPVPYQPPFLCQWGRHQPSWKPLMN

[10] = molecular target: Dual specificity tyrosine-phosphorylation-regulated kinase 1A (Rattus norvegicus, UniProt Q63470); format: biochemical, Homo sapiens
[11] = molecular target: DNA damage-inducible transcript 3 protein (Mus musculus, UniProt P35639); format: functional, Cricetulus griseus
Chain of DNA damage-inducible transcript 3 protein (P35639 whole entry): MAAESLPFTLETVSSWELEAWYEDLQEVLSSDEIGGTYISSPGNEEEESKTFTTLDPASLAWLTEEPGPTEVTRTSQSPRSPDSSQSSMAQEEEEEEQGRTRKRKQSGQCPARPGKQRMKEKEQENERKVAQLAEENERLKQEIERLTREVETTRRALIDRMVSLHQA

HEK293 [12] = experiment: cells; conditions: Homo sapiens; remark: listed apart in the source
[13] = Luminescence Cell-Based Dose Response HTS to Identify Activators of Luciferase Translation or Activity in H4 […] Cells. [Related pubchem assays: 1829 (Project Summary), 1814 (Primary HTS)]; format: functional
[14] = decrease of insulin promoter-GFP reporter – imaging, high-content screening, mouse beta cells (AID 1628); format: functional; conditions: MIN6
[15] = MIN6 cell viability loss – mouse insulinoma, cytotoxicity control, dose response (AID 2122); format: functional;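 further: confirmatory high-throughput counterscreen run to flag cytotoxic compounds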
[16] = molecular target: T3, High affinity choline transporter 1 (Homo sapiens, UniProt Q9GZV3); experiment: human choline transporter blockers, potency – cell-based, 5-point CRC, membrane potential dye, dose response (AID 504840); format: functional
T3 sequence (Q9GZV3 whole entry): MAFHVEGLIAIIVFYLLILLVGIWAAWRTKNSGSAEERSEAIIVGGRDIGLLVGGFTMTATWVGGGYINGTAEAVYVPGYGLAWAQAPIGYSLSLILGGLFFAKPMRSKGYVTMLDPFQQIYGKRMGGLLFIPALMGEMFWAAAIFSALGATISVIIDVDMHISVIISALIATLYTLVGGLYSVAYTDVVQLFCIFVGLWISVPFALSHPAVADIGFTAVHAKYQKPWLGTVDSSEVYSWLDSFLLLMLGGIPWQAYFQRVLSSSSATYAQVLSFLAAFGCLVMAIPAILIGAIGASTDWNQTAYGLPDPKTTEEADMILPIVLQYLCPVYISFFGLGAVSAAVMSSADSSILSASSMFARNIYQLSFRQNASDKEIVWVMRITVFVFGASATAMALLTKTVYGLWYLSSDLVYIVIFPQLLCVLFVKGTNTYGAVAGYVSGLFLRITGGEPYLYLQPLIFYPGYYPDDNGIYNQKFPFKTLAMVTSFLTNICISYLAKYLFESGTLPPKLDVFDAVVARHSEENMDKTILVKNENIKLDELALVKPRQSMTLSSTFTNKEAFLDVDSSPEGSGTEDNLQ

[17] = molecular target: Ras and Rab interactor 1/Tyrosine-protein kinase ABL1 (Homo sapiens, UniProt P00519+Q13671); format: functional;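 further: biochemical TR-FRET dose-response test measuring inhibition of binding between Rin1 and Abl proteins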
Chain of Ras and Rab interactor 1/Tyrosine-protein kinase ABL1 (P00519 whole entry): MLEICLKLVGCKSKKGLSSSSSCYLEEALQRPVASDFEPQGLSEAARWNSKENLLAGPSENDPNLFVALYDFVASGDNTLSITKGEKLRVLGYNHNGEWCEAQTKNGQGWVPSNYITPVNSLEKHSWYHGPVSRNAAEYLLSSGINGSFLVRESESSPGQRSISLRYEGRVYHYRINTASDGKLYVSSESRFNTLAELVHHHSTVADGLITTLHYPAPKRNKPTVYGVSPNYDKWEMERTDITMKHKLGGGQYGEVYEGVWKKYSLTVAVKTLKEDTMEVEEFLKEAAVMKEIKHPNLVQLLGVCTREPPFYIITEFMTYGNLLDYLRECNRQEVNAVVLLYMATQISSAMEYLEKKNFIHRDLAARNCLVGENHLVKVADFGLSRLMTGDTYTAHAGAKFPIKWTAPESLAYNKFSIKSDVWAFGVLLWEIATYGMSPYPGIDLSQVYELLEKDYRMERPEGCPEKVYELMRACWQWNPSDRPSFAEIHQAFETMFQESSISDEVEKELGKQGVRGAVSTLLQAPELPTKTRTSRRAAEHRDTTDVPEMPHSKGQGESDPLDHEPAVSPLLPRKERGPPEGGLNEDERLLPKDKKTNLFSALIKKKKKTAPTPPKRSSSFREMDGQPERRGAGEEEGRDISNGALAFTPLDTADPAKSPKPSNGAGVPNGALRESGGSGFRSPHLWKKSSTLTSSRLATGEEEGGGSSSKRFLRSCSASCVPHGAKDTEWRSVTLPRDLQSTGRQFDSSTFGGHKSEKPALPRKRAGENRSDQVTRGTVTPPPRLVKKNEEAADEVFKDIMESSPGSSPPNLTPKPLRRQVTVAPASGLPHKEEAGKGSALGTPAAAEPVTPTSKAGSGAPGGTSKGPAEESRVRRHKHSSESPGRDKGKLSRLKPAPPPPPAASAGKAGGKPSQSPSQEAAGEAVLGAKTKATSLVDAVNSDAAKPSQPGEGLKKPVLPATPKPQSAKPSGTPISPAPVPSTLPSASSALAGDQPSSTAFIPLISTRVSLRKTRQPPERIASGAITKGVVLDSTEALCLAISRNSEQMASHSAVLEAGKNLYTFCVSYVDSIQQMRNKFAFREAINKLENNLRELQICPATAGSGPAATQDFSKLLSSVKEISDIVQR
Chain of Ras and Rab interactor 1/Tyrosine-protein kinase ABL1 (Q13671 whole entry): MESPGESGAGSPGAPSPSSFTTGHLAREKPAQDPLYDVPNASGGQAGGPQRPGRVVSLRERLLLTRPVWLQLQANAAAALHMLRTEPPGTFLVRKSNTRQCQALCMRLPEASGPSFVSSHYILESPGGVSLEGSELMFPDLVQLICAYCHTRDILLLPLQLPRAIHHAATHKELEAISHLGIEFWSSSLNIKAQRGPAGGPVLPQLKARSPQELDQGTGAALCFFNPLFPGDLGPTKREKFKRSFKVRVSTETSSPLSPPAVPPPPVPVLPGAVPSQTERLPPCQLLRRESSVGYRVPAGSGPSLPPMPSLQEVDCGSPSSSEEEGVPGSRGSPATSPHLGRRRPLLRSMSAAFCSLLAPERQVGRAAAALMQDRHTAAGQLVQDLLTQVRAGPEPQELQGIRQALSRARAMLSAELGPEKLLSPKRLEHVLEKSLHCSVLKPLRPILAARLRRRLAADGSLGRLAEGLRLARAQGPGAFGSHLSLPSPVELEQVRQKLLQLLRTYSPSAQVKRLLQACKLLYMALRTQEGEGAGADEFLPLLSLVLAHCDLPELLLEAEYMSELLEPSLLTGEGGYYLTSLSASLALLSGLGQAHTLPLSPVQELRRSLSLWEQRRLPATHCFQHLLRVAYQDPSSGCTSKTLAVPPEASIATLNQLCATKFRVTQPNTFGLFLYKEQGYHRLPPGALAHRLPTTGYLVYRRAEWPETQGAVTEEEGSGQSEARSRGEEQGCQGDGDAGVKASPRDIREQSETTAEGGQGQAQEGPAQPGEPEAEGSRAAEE

Cytochrome P450 2C19 = Cytochrome P450 2C19 (Homo sapiens, UniProt P33261); experiment: Cytochrome panel assay with activity outcomes. Panel member name: p450-cyp2c19 Compounds with AC50 equal or less than 10 uM are considered active; format: functional
Chain of Cytochrome P450 2C19 (P33261 whole entry): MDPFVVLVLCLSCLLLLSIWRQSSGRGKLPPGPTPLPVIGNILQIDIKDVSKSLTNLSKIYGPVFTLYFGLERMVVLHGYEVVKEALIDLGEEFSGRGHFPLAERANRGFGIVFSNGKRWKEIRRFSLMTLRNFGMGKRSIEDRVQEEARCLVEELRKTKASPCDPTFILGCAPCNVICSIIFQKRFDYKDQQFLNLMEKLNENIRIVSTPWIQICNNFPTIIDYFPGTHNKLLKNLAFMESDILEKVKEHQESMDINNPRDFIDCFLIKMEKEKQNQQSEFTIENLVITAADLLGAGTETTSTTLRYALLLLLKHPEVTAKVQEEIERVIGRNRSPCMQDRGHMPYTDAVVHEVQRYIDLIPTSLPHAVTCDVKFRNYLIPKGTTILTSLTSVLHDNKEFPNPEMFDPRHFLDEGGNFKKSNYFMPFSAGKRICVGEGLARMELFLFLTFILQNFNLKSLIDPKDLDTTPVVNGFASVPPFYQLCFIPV

Cytochrome P450 2D6 = Cytochrome P450 2D6 (Homo sapiens, UniProt P10635);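 further: CYP2D6 member of a cytochrome P450 panel assay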
Chain of Cytochrome P450 2D6 (P10635 whole entry): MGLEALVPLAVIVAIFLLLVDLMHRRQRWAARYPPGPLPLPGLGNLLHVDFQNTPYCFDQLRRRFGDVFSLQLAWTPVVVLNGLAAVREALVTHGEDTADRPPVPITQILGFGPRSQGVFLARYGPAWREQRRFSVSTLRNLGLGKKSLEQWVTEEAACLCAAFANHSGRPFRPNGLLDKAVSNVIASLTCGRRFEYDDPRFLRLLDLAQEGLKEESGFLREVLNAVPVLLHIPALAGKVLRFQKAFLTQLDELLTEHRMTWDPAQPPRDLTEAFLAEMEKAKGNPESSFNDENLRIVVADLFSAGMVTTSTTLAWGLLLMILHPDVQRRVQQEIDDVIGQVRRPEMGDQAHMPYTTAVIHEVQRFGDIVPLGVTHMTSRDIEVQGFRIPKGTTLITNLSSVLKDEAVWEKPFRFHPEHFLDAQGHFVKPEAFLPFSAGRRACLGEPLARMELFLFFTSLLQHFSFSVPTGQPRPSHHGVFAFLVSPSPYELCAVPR

Cytochrome P450 3A4 = Cytochrome P450 3A4 (Homo sapiens, UniProt P08684);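 further: CYP3A4 tested as one member of a cytochrome P450 panel screen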
Chain of Cytochrome P450 3A4 (P08684 whole entry): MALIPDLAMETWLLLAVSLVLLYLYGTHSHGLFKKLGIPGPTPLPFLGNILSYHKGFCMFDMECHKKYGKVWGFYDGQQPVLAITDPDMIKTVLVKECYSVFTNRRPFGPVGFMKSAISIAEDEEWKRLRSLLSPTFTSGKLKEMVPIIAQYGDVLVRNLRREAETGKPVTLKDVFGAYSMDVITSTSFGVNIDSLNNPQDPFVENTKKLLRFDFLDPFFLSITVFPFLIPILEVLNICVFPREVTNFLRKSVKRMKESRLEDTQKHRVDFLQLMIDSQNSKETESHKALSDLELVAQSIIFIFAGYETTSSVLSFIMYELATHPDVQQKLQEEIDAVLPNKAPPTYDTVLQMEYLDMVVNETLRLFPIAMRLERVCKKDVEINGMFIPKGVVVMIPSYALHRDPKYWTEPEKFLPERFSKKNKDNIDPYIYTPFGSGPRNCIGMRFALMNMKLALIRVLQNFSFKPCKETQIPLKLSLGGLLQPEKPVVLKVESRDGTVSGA

[18] = molecular target: Dual specificity protein kinase CLK1 (Homo sapiens, UniProt P49759); experiment: inhibition of human CLK1 activity – biochemical, cherry-picked samples, selectivity assay for Dyrk1A inhibitor project, dose response (AID 588811)
Chain of Dual specificity protein kinase CLK1 (P49759 whole entry): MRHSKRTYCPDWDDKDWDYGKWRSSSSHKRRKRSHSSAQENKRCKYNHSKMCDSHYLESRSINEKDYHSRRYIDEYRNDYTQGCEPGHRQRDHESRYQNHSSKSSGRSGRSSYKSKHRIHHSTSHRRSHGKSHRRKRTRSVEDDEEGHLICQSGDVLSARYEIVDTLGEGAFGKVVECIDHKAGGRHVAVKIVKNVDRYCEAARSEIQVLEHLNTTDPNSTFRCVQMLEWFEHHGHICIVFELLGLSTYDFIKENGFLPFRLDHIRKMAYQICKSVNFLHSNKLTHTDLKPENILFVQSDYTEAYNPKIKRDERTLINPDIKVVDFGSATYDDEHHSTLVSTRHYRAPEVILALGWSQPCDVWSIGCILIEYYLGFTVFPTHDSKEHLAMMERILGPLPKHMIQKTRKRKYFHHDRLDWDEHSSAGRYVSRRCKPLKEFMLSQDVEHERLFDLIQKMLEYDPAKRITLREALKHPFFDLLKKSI

COc1cc(/C=C2/SC(Nc3ccc(O)cc3)=NC2=O)ccc1O
IC50 [1]: 42.7 µM (inactive) | CC50 [2]: 61.1 µM (active) | IC50 [3]: 20 µM (active)

CN(Cc1ccccc1)C1=CC(=[N+]2CCCCC2)CC(C)(C)C1
IC50 [1]: > 80 µM (inactive) | EC50 [4]: > 60 µM (not active) | EC50 [5]: < 0.1 µM (active) | AC50 [6]: 2.46 µM (active) | AC50 (A-375): 84.3 µM (active) | EC50 (cells): 0.032 µM (active)

COc1cc(NC(=O)C2CCCN(S(=O)(=O)c3cccc4nsnc34)C2)cc(OC)c1 (configuration not stated)
AC50 [7]: 118 µM (active)

COc1ccc(/C=C(/C(=O)c2cccs2)N2C=CC=CC2=C(C#N)C#N)cc1
EC50 [8]: > 120 µM (not active) | CC50 (Vero): > 25 µM (active) | EC50 (HEK293 [9]): > 59.6 µM (inactive) | EC50 (H4): > 120 µM (not active) | Absolute IC50 (XBP1) (X-box-binding protein 1): 10 µM | AC50 [10]: 8.18 µM (active) | Absolute IC50 (CHOP) [11]: 10 µM | EC50 (HEK293 [12]): > 59.6 µM (inactive) | EC50 [13]: > 120 µM (not active)

CCOC(=O)N1CCN(C(=O)C2CCN(c3ncnc4c3sc3cccc(F)c34)CC2)CC1
IC50 [14]: 1.49 µM (active) | IC50 [15]: 1.05 µM (active) | IC50 [16]: 13.8 µM (active) | IC50 [17]: 14.2 µM (inactive)

COc1cccc(NC(=O)CSc2nc3c(c(-c4ccco4)c2C#N)CCCC3)c1
AC50 (Cytochrome P450 2C19): inconclusive | AC50 (Cytochrome P450 2D6): inconclusive | AC50 (Cytochrome P450 3A4): inconclusive

COc1ccc(-c2nccc(NCc3ccc(C)cc3)n2)cc1
AC50 [18]: 0.00697 µM (active)
